The results in this text go back to patent publication US10513522B2, “Azetidinyl phenyl, pyridyl or pyrazinyl carboxamide derivatives as JAK inhibitors” (Incyte Corporation, priority 2011, dated 2019).

This assay relates to human JAK1 (a.a. 837-1142). In words: In vitro JAK kinase assay (HTRF, phosphorylation of biotinylated peptide), JAK1. The class given is biochemical. The following applies: ratio of IC50 at 1 mM ATP. A general note: TR-FRET usually uses a lanthanide donor and a delayed reading to cut background.
Procedure: The catalytic activity of JAK1, JAK2 or JAK3 was assayed by measuring the phosphorylation of a biotinylated peptide. The phosphorylated peptide was detected by homogenous time resolved fluorescence (HTRF). […] Reactions were carried out at room temperature for 1 hour and then stopped with 20 μL 45 mM EDTA, 300 nM SA-APC, 6 nM Eu-Py20 in assay buffer (Perkin Elmer, Boston, Mass.). Binding to the Europium labeled antibody took place for 40 minutes and HTRF signal was measured on a Fusion plate reader (Perkin Elmer, Boston, Mass.).
Regarding `CC(C)NC(=O)c1ccc(N2CC(CC#N)(n3cc(-c4ccnc5[nH]ccc45)cn3)C2)cc1` [Example 1, 4-{3-(Cyanomethyl)-3-[4-(1H-pyrrolo[2,3-b]pyridin-4-yl)-1H-pyrazol-1-yl]azetidin-1-yl}-N-isopropylbenzamide], the JAK2/JAK1 result is “A (A means greater than or equal to 10)”.
The result for `C[C@H](NC(=O)c1ccc(N2CC(CC#N)(n3cc(-c4ccnc5[nH]ccc45)cn3)C2)cn1)C1CC1` [Example 2, 5-{3-(Cyanomethyl)-3-[4-(1H-pyrrolo[2,3-b]pyridin-4-yl)-1H-pyrazol-1-yl]azetidin-1-yl}-N-[(1S)-1-cyclopropylethyl]pyridine-2-carboxamide] reads “A (A means greater than or equal to 10)”; that for `CC(C)NC(=O)c1ccc(N2CC(CC#N)(n3cc(-c4ncnc5[nH]ccc45)cn3)C2)c(F)c1` [Example 3, 4-{3-(Cyanomethyl)-3-[4-(7H-pyrrolo[2,3-d]pyrimidin-4-yl)-1H-pyrazol-1-yl]azetidin-1-yl}-3-fluoro-N-isopropylbenzamide], “A (A means greater than or equal to 10)”; that for `C[C@@H](NC(=O)c1ccc(N2CC(CC#N)(n3cc(-c4ncnc5[nH]ccc45)cn3)C2)c(F)c1)C1CC1` [Example 4, 4-{3-(Cyanomethyl)-3-[4-(7H-pyrrolo[2,3-d]pyrimidin-4-yl)-1H-pyrazol-1-yl]azetidin-1-yl}-N-[(1R)-1-cyclopropylethyl]-3-fluorobenzamide], “A (A means greater than or equal to 10)”.
Consider `C[C@H](NC(=O)c1ccc(N2CC(CC#N)(n3cc(-c4ncnc5[nH]ccc45)cn3)C2)c(F)c1)C1CC1` [Example 5, 4-{3-(Cyanomethyl)-3-[4-(7H-pyrrolo[2,3-d]pyrimidin-4-yl)-1H-pyrazol-1-yl]azetidin-1-yl}-N-[(1S)-1-cyclopropylethyl]-3-fluorobenzamide], for which the JAK2/JAK1 entry was “A (A means greater than or equal to 10)”.
The result for `CC(C)NC(=O)c1cc(F)c(N2CC(CC#N)(n3cc(-c4ncnc5[nH]ccc45)cn3)C2)cc1F` [Example 6, 4-{3-(Cyanomethyl)-3-[4-(7H-pyrrolo[2,3-d]pyrimidin-4-yl)-1H-pyrazol-1-yl]azetidin-1-yl}-2,5-difluoro-N-isopropylbenzamide] reads “A (A means greater than or equal to 10)”; that for `CN(C(=O)c1ccc(N2CC(CC#N)(n3cc(-c4ncnc5[nH]ccc45)cn3)C2)c(F)c1)C1CC1` [Example 7, 4-{3-(Cyanomethyl)-3-[4-(7H-pyrrolo[2,3-d]pyrimidin-4-yl)-1H-pyrazol-1-yl]azetidin-1-yl}-N-cyclopropyl-3-fluoro-N-methylbenzamide], “A (A means greater than or equal to 10)”; that for `CC(C)NC(=O)c1cc(Cl)c(N2CC(CC#N)(n3cc(-c4ncnc5[nH]ccc45)cn3)C2)cc1F` [Example 8, 5-Chloro-4-{3-(cyanomethyl)-3-[4-(7H-pyrrolo[2,3-d]pyrimidin-4-yl)-1H-pyrazol-1-yl]azetidin-1-yl}-2-fluoro-N-isopropylbenzamide], “A (A means greater than or equal to 10)”.
Under `CC(C)NC(=O)c1ccc(N2CC(CC#N)(n3cc(-c4ncnc5[nH]ccc45)cn3)C2)cn1` [Example 9, 5-{3-(Cyanomethyl)-3-[4-(7H-pyrrolo[2,3-d]pyrimidin-4-yl)-1H-pyrazol-1-yl]azetidin-1-yl}-N-isopropylpyridine-2-carboxamide] stands “A (A means greater than or equal to 10)”; under `C[C@H](NC(=O)c1ccc(N2CC(CC#N)(n3cc(-c4ncnc5[nH]ccc45)cn3)C2)c(F)c1)C(F)(F)F` [Example 10, 4-{3-(Cyanomethyl)-3-[4-(7H-pyrrolo[2,3-d]pyrimidin-4-yl)-1H-pyrazol-1-yl]azetidin-1-yl}-3-fluoro-N-[(1S)-2,2,2-trifluoro-1-methylethyl]benzamide], “A (A means greater than or equal to 10)”; under `C[C@H](NC(=O)c1ccc(N2CC(CC#N)(n3cc(-c4ncnc5[nH]ccc45)cn3)C2)cn1)C1CC1` [Example 11, 5-{3-(Cyanomethyl)-3-[4-(7H-pyrrolo[2,3-d]pyrimidin-4-yl)-1H-pyrazol-1-yl]azetidin-1-yl}-N-[(1S)-1-cyclopropylethyl]pyridine-2-carboxamide], “A (A means greater than or equal to 10)”.
The result for `N#CCC1(n2cc(-c3ncnc4[nH]ccc34)cn2)CN(c2ccc(C(=O)NC3CC(F)(F)C3)nc2)C1` [Example 12, 5-{3-(Cyanomethyl)-3-[4-(7H-pyrrolo[2,3-d]pyrimidin-4-yl)-1H-pyrazol-1-yl]azetidin-1-yl}-N-(3,3-difluorocyclobutyl)pyridine-2-carboxamide] reads “A (A means greater than or equal to 10)”; that for `CC(C)NC(=O)c1ccc(N2CC(CC#N)(n3cc(-c4ncnc5[nH]ccc45)cn3)C2)cc1` [Example 13, 4-{3-(Cyanomethyl)-3-[4-(7H-pyrrolo[2,3-d]pyrimidin-4-yl)-1H-pyrazol-1-yl]azetidin-1-yl}-N-isopropylbenzamide], “A (A means greater than or equal to 10)”; that for `C[C@H](NC(=O)c1ccc(N2CC(CC#N)(n3cc(-c4ncnc5[nH]ccc45)cn3)C2)cc1F)C1CCCCC1` [Example 15, 4-{3-(Cyanomethyl)-3-[4-(7H-pyrrolo[2,3-d]pyrimidin-4-yl)-1H-pyrazol-1-yl]azetidin-1-yl}-N-[(1S)-1-cyclohexylethyl]-2-fluorobenzamide], “A (A means greater than or equal to 10)”.
For the compound `C[C@@H](NC(=O)c1ccc(N2CC(CC#N)(n3cc(-c4ncnc5[nH]ccc45)cn3)C2)c(F)c1)C(F)(F)F` [Example 16, 4-{3-(Cyanomethyl)-3-[4-(7H-pyrrolo[2,3-d]pyrimidin-4-yl)-1H-pyrazol-1-yl]azetidin-1-yl}-3-fluoro-N-[(1R)-2,2,2-trifluoro-1-methylethyl]benzamide], the JAK2/JAK1 entry was “A (A means greater than or equal to 10)”.
The result for `N#CCC1(n2cc(-c3ncnc4[nH]ccc34)cn2)CN(c2ccc(C(=O)NC3(C(F)(F)F)CC3)nc2)C1` [Example 17, 5-{3-(Cyanomethyl)-3-[4-(7H-pyrrolo[2,3-d]pyrimidin-4-yl)-1H-pyrazol-1-yl]azetidin-1-yl}-N-[1-(trifluoromethyl)cyclopropyl]pyridine-2-carboxamide] reads “A (A means greater than or equal to 10)”.
The result for `CC(NC(=O)c1ccc(N2CC(CC#N)(n3cc(-c4ncnc5[nH]ccc45)cn3)C2)cc1)C1CCN(C)CC1` (stereo not shown) [Example 20, 4-{3-(Cyanomethyl)-3-[4-(7H-pyrrolo[2,3-d]pyrimidin-4-yl)-1H-pyrazol-1-yl]azetidin-1-yl}-N-[1-(1-methylpiperidin-4-yl)ethyl]benzamide] reads “A (A means greater than or equal to 10)”; that for `C[C@@H](NC(=O)c1cc(F)c(N2CC(CC#N)(n3cc(-c4ncnc5[nH]ccc45)cn3)C2)cc1F)C1CC1` [Example 21, 4-{3-(Cyanomethyl)-3-[4-(7H-pyrrolo[2,3-d]pyrimidin-4-yl)-1H-pyrazol-1-yl]azetidin-1-yl}-N-[(1R)-1-cyclopropylethyl]-2,5-difluorobenzamide], “A (A means greater than or equal to 10)”.
`C[C@H](NC(=O)c1ccc(N2CC(CC#N)(n3cc(-c4ncnc5[nH]ccc45)cn3)C2)cc1F)C(F)(F)F` [Example 22, 4-{3-(Cyanomethyl)-3-[4-(7H-pyrrolo[2,3-d]pyrimidin-4-yl)-1H-pyrazol-1-yl]azetidin-1-yl}-2-fluoro-N-[(1S)-2,2,2-trifluoro-1-methylethyl]benzamide]: the JAK2/JAK1 result is recorded as “A (A means greater than or equal to 10)”.
Take `CCNC(=O)c1ccc(N2CC(CC#N)(n3cc(-c4ncnc5[nH]ccc45)cn3)C2)cn1` [Example 24, 5-{3-(Cyanomethyl)-3-[4-(7H-pyrrolo[2,3-d]pyrimidin-4-yl)-1H-pyrazol-1-yl]azetidin-1-yl}-N-ethylpyridine-2-carboxamide]: the JAK2/JAK1 result is recorded as “A (A means greater than or equal to 10)”.
As to `CC[C@@H](C)NC(=O)c1ccc(N2CC(CC#N)(n3cc(-c4ncnc5[nH]ccc45)cn3)C2)cc1.O=C(O)C(F)(F)F.O=C(O)C(F)(F)F` [Example 25, 4-{3-(Cyanomethyl)-3-[4-(7H-pyrrolo[2,3-d]pyrimidin-4-yl)-1H-pyrazol-1-yl]azetidin-1-yl}-N-[(1R)-1-methylpropyl]benzamide bis(trifluoroacetate)], the JAK2/JAK1 entry was “A (A means greater than or equal to 10)”.
The result for `CC(C)NC(=O)c1ccc(N2CC(CC#N)(n3cc(-c4ccnc5[nH]ccc45)cn3)C2)c(F)c1` [Example 27, 4-{3-(Cyanomethyl)-3-[4-(1H-pyrrolo[2,3-b]pyridin-4-yl)-1H-pyrazol-1-yl]azetidin-1-yl}-3-fluoro-N-isopropylbenzamide] reads “A (A means greater than or equal to 10)”.
For `C[C@H](NC(=O)c1cc(F)c(N2CC(CC#N)(n3cc(-c4ncnc5[nH]ccc45)cn3)C2)cc1F)C(F)(F)F` [Example 28, 4-{3-(Cyanomethyl)-3-[4-(7H-pyrrolo[2,3-d]pyrimidin-4-yl)-1H-pyrazol-1-yl]azetidin-1-yl}-2,5-difluoro-N-[(1S)-2,2,2-trifluoro-1-methylethyl]benzamide], the JAK2/JAK1 entry is recorded as “A (A means greater than or equal to 10)”.
The result for `C[C@@H](NC(=O)c1cc(F)c(N2CC(CC#N)(n3cc(-c4ncnc5[nH]ccc45)cn3)C2)cc1F)C(F)(F)F` [Example 29, 4-{3-(Cyanomethyl)-3-[4-(7H-pyrrolo[2,3-d]pyrimidin-4-yl)-1H-pyrazol-1-yl]azetidin-1-yl}-2,5-difluoro-N-[(1R)-2,2,2-trifluoro-1-methylethyl]benzamide] reads “A (A means greater than or equal to 10)”.
Consider `C[C@@H](NC(=O)c1cnc(N2CC(CC#N)(n3cc(-c4ncnc5[nH]ccc45)cn3)C2)cn1)C(F)(F)F` [Example 30, 5-{3-(Cyanomethyl)-3-[4-(7H-pyrrolo[2,3-d]pyrimidin-4-yl)-1H-pyrazol-1-yl]azetidin-1-yl}-N-[(1R)-2,2,2-trifluoro-1-methylethyl]pyrazine-2-carboxamide], for which the JAK2/JAK1 result is listed as “A (A means greater than or equal to 10)”.
